# Test system: 301 cancer cell lines from different tumor types
# Assay: 2D cell viability inhibition assay, broad cancer cell line panel (OncoPanel; CellTiter-Glo)
# Format: cell-based
# Set-up: key to Emax: % of DMSO control (minimum response over dose range); AUC: scale not given here
# Conditions: for AUC / Emax: 168 hours; for Emax: in % (unit assumed)
# Procedure: In a larger screening study, compound 1 was evaluated across a broad cancer cell line panel (OncoPanel; HD Biosciences) composed of 301 cancer cell lines from different tumor types.
# 2D cell viability inhibition assays were performed in multiwell plates seeded with cells from the panel. After seeding, the plates were cultured overnight in a humidified incubator at 37° C. to promote adherence. Assays were initiated in individual wells by adding either DMSO as a vehicle control, growth media as a blank, or serially diluted compound 1 (10 μM to 0.0005 μM with 1:3 serial dilution). Cultures were incubated for 168 hours after which the number of viable cells in each test well was assessed using the CellTiter-Glo® Luminescent Cell Viability Assay. Luminescence readouts were performed using an EnVision® Multilabel Reader and the compound 1 readouts were normalized to the DMSO control readouts, expressed as a percent of the control. Outliers were flagged out by visual inspection. Percent of control was plotted against the corresponding compound 1 concentration and the absolute IC50 value was determined using four-parameter logistic non-linear regression as the concentration where inhibition was 50% of the control. […] Emax was recorded as the minimum in y with the compound dose range. […] The sensitive/moderate/resistant calls for each cell line was determined by visually inspecting the resulting clustering dendrogram. All the analyses were done in R Core Team.
# [1] = Homo sapiens, NCI-H1650, 168 h, NCIH1650 (lung, bronchioloalveolar adenocarcinoma)
# [2] = Homo sapiens, NCI-H1755, 168 h, NCIH1755 (lung, adenocarcinoma)
# [3] = Homo sapiens, NCI-H1838, 168 h, NCIH1838 (lung, non-small cell carcinoma)
# [4] = Homo sapiens, NCI-H2009, 168 h, NCIH2009 (lung, adenocarcinoma)
# [5] = Homo sapiens, ONS-76, 168 h, ONS76 (central nervous system, NS)
# [6] = Homo sapiens, OVCAR-3, 168 h, NIHOVCAR3 (ovary, NS)
# [7] = Homo sapiens, RPMI-7951, 168 h, RPMI7951 (skin, NS)
# [8] = Homo sapiens, SAOS-2, 168 h, SAOS2 (bone, NS)
# [9] = Homo sapiens, SCC-9, 168 h, SCC9 (upper aerodigestive tract, squamous cell carcinoma)
# [10] = Homo sapiens, SCC-15, 168 h, SCC15 (upper aerodigestive tract, squamous cell carcinoma)
# [11] = Homo sapiens, SCC-25, 168 h, SCC25 (upper aerodigestive tract, squamous cell carcinoma)
# [12] = Homo sapiens, SK-HEP1, 168 h, SKHEP1 (liver, adenocarcinoma)
# [13] = Homo sapiens, SK-MEL-24, 168 h, SKMEL24 (skin, NS)
# [14] = Homo sapiens, SK-N-SH, 168 h, SKNSH (autonomic ganglia, NS)
# [15] = Homo sapiens, SK-OV-3, 168 h, SKOV3 (ovary, adenocarcinoma)
# [16] = Homo sapiens, SNU-C1, 168 h, SNUC1 (large intestine, adenocarcinoma)
# [17] = Homo sapiens, SW837, 168 h, SW837 (large intestine, adenocarcinoma)
# [18] = Homo sapiens, SW1417, 168 h, SW1417 (large intestine, adenocarcinoma)
# [19] = Homo sapiens, TE-15, 168 h, TE15 (oesophagus, squamous cell carcinoma)
# [20] = Homo sapiens, UACC-812, 168 h, UACC812 (breast, ductal carcinoma)
# [21] = Homo sapiens, VCaP, 168 h, VCAP (prostate, adenocarcinoma)
# [22] = KASUMI1 (haematopoietic and lymphoid tissue, acute myeloid leukaemia)
# [23] = KG1 (haematopoietic and lymphoid tissue, acute myeloid leukaemia)
# [24] = KURAMOCHI (ovary, undifferentiated carcinoma)
# [25] = KYSE70 (oesophagus, squamous cell carcinoma)
# [26] = LU99 (lung, large cell carcinoma)
# [27] = MDAMB157 (breast, ductal carcinoma)
# [28] = MDAMB 175 VII (breast, ductal carcinoma)
# [29] = NCI-H1435, 168 h, NCIH1435 (lung, non-small cell carcinoma)
# [30] = NCIH596 (lung, mixed adenosquamous carcinoma)
# [31] = NCIH1395 (lung, adenocarcinoma)
# [32] = NCIH1435 (lung, non-small cell carcinoma)
# [33] = NCIH1563 (lung, adenocarcinoma)
# [34] = NCIH1573 (lung, adenocarcinoma)
# [35] = NCIH1650 (lung, bronchioloalveolar adenocarcinoma)
# [36] = NCIH1755 (lung, adenocarcinoma)
# [37] = NCIH1838 (lung, non-small cell carcinoma)
# [38] = NCIH2009 (lung, adenocarcinoma)
# [39] = NMCG1 (central nervous system, NS)
# [40] = ONS76 (central nervous system, NS)
# [41] = SCC9 (upper aerodigestive tract, squamous cell carcinoma)
# [42] = SCC15 (upper aerodigestive tract, squamous cell carcinoma)
# [43] = SCC25 (upper aerodigestive tract, squamous cell carcinoma)
# [44] = SNUC1 (large intestine, adenocarcinoma)
# [45] = SW579 (thyroid, anaplastic carcinoma)
# [46] = SW579, 168 h, SW579 (thyroid, anaplastic carcinoma)
# [47] = SW837 (large intestine, adenocarcinoma)
# [48] = SW1271 (lung, small cell carcinoma)
# [49] = SW1271, 168 h, SW1271 (lung, small cell carcinoma)
# [50] = SW1417 (large intestine, adenocarcinoma)
# [51] = T24 (urinary tract, transitional cell carcinoma)
# [52] = TE1 (oesophagus, squamous cell carcinoma)
# [53] = TE8 (oesophagus, squamous cell carcinoma)
# [54] = TE15 (oesophagus, squamous cell carcinoma)
# [55] = UACC812 (breast, ductal carcinoma)
# [56] = VCAP (prostate, adenocarcinoma)
structure (smiles),measurement,setting,value
"CC(C)c1ccc(N(C)c2ccc3c(c2)OCC[C@H]3CNc2cnccc2C(=O)O)cc1 [Compound 1, 3-({[(4R)-7-{methyl[4-(propan-2-yl)phenyl]amino}-3,4-dihydro-2H-1-benzopyran-4-yl]methyl}amino)pyridine-4-carboxylic acid]",EC50,[1],≥ 10 µM
same,IC50,[1],≥ 10 µM
same,EC50,[2],≥ 10 µM
same,IC50,[2],≥ 10 µM
same,EC50,[3],≥ 10 µM
same,IC50,[3],≥ 10 µM
same,EC50,[4],8.02 µM
same,IC50,[4],≥ 10 µM
same,EC50,[5],≥ 10 µM
same,IC50,[5],≥ 10 µM
same,EC50,[6],≥ 10 µM
same,IC50,[6],≥ 10 µM
same,EC50,[7],≥ 10 µM
same,IC50,[7],≥ 10 µM
same,EC50,[8],≥ 10 µM
same,IC50,[8],≥ 10 µM
same,EC50,[9],≥ 10 µM
same,IC50,[9],≥ 10 µM
same,EC50,[10],≥ 10 µM
same,IC50,[10],≥ 10 µM
same,EC50,[11],≥ 10 µM
same,IC50,[11],≥ 10 µM
same,EC50,[12],≥ 10 µM
same,IC50,[12],≥ 10 µM
same,EC50,[13],≥ 10 µM
same,IC50,[13],≥ 10 µM
same,EC50,[14],≥ 10 µM
same,IC50,[14],≥ 10 µM
same,EC50,[15],≥ 10 µM
same,IC50,[15],≥ 10 µM
same,EC50,[16],≥ 10 µM
same,IC50,[16],≥ 10 µM
same,EC50,[17],≥ 10 µM
same,IC50,[17],≥ 10 µM
same,EC50,[18],≥ 10 µM
same,IC50,[18],≥ 10 µM
same,EC50,[19],≥ 10 µM
same,IC50,[19],≥ 10 µM
same,EC50,[20],6.95 µM
same,IC50,[20],≥ 10 µM
same,EC50,[21],≥ 10 µM
same,IC50,[21],≥ 10 µM
same,AUC,[22],0.8823
same,Emax,[22],81.08
same,AUC,[23],0.9592
same,Emax,[23],80.44
same,AUC,[24],0.8742
same,Emax,[24],73.85
same,AUC,[25],0.6942
same,Emax,[25],50.19
same,AUC,[26],0.79
same,Emax,[26],64.66
same,AUC,"MALME3M (skin, NS)",0.9867
same,Emax,"MALME3M (skin, NS)",94.08
same,AUC,[27],0.8362
same,Emax,[27],64.71
same,AUC,[28],0.7385
same,Emax,[28],60.66
same,AUC,"MDAMB231 (breast, NS)",0.7262
same,Emax,"MDAMB231 (breast, NS)",55.94
same,AUC,"MDAMB361 (breast, NS)",1.117
same,Emax,"MDAMB361 (breast, NS)",94.55
same,AUC,"MDAMB415 (breast, NS)",0.9413
same,Emax,"MDAMB415 (breast, NS)",83.39
same,AUC,"MDAMB436 (breast, NS)",0.8438
same,Emax,"MDAMB436 (breast, NS)",70.42
same,AUC,"MDAMB468 (breast, NS)",0.6972
same,Emax,"MDAMB468 (breast, NS)",50.87
same,AUC,"MEWO (skin, NS)",0.7237
same,Emax,"MEWO (skin, NS)",56.56
same,EC50,[29],≥ 10 µM
same,IC50,[29],≥ 10 µM
same,AUC,"NCIH441 (lung, adenocarcinoma)",0.7804
same,Emax,"NCIH441 (lung, adenocarcinoma)",67.49
same,AUC,[30],0.8151
same,Emax,[30],61.34
same,AUC,[31],0.8542
same,Emax,[31],70.68
same,AUC,[32],0.7612
same,Emax,[32],60.04
same,AUC,[33],0.9652
same,Emax,[33],93.507
same,AUC,[34],0.7482
same,Emax,[34],53.57
same,AUC,[35],0.8746
same,Emax,[35],68.07
same,AUC,[36],1.29
same,Emax,[36],123.3293
same,AUC,[37],0.7858
same,Emax,[37],60.0585
same,AUC,[38],0.7914
same,Emax,[38],55.69
same,AUC,"NIHOVCAR3 (ovary, NS)",0.7771
same,Emax,"NIHOVCAR3 (ovary, NS)",59.47
same,AUC,[39],0.7013
same,Emax,[39],47.06
same,AUC,[40],0.7336
same,Emax,[40],54.63
same,AUC,"RPMI7951 (skin, NS)",0.8067
same,Emax,"RPMI7951 (skin, NS)",66.31
same,AUC,"SAOS2 (bone, NS)",1.081
same,Emax,"SAOS2 (bone, NS)",92.52
same,AUC,[41],0.9424
same,Emax,[41],69.25
same,AUC,[42],0.9489
same,Emax,[42],90.39
same,AUC,[43],0.7789
same,Emax,[43],62.3079
same,AUC,"SKHEP1 (liver, adenocarcinoma)",0.7091
same,Emax,"SKHEP1 (liver, adenocarcinoma)",44.3029
same,AUC,"SKMEL24 (skin, NS)",0.7882
same,Emax,"SKMEL24 (skin, NS)",58.12
same,AUC,"SKMEL31 (skin, NS)",0.7393
same,Emax,"SKMEL31 (skin, NS)",59.49
same,AUC,"SKNSH (autonomic ganglia, NS)",0.7295
same,Emax,"SKNSH (autonomic ganglia, NS)",53.89
same,AUC,"SKOV3 (ovary, adenocarcinoma)",0.9901
same,Emax,"SKOV3 (ovary, adenocarcinoma)",96.03
same,AUC,[44],0.7478
same,Emax,[44],55.45
same,AUC,[45],0.9203
same,Emax,[45],79.98
same,EC50,[46],≥ 10 µM
same,IC50,[46],≥ 10 µM
same,AUC,[47],0.7109
same,Emax,[47],46.73
same,AUC,[48],0.8179
same,Emax,[48],65.38
same,EC50,[49],≥ 10 µM
same,IC50,[49],≥ 10 µM
same,AUC,[50],0.9634
same,Emax,[50],91.96
same,AUC,[51],0.9289
same,Emax,[51],75.74
same,AUC,[52],0.938
same,Emax,[52],84.54
same,AUC,[53],0.816
same,Emax,[53],72.1307
same,AUC,[54],1.084
same,Emax,[54],89.04
same,AUC,[55],0.8418
same,Emax,[55],62.67
same,AUC,[56],0.7822
same,Emax,[56],62.6

# From patent publication US20250025451A1, “TREATMENT OF CANCER WITH KDM4 INHIBITORS” (Celgene Corporation, priority 2021, published 2025)
